Experimental data as given in PubChem BioAssay AID2060327 (Molecular Pharmacology Branch, DTP, NCI, 2025).
Where “and” joins values, the source holds several entries; their conditions need not be identical. Identical values can stand only once.

System: PC-3 multi-cell spheroids, viability
Assay: Anticancer human tumor PC-3 cell line growth inhibition [IpAb];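 further: spheroids exposed to compounds for 7 days before readout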;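 on viability, T/C: 100% = DMSO vehicle control wells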
Conditions: for viability, T/C: stronger effect = lower value
Description: Combinatorial screen of targeted agents with ipatasertib and abemaciclib in multi-cell type tumor spheroids
A high-throughput screen of multi-cell type tumor spheroids was designed to identify active combinations of targeted small molecules and ipatasertib or abemaciclib. Complex spheroids include a stromal component modeled by human endothelial cells (HUVEC) and fibroblasts modeled by human mesenchymal stem cells (MSCs). The concentration ranges selected for each drug and investigational agent were based upon clinically achievable concentrations if the clinical Cmax of the agent was known.
Compounds. The drugs and investigational agents: ipatasertib (NSC767898), abemaciclib(NSC768073), selumetinib (NSC741078), trametinib (758246), adavosertib (NSC754352), everolimus (NSC733504), sapanisertib (NSC764658), vemurafenib (NSC761431), venetoclax (NSC766270), copanlisib (NSC809693), apelisib (NSC765974), palbociblib (NSC758247), vemurafenib (NSC761431), dabrafenib (NSC764134), ravoxertinib (NSC781343), BMS-387032 (NSC767048), sotorasib (NSC818433), talazoparib (NSC767125) and afursertib (NSC778305), were obtained from the National Cancer Institute (NCI) Developmental Therapeutics Program Chemical Repository. The FDA-approved anticancer drug set is available from the NCI Developmental Therapeutics Program. […] The stock solutions were prepared in dimethyl sulfoxide (DMSO, Sigma-Aldrich, St. Louis, MO, cat. D2650) at 800-fold the tested concentration and stored at -70 degrees C prior to their use. All drugs and investigational agents were tested over a range starting from a high concentration at or near the clinical Cmax and decreasing in half-log increments. If the clinical Cmax for an agent had not been determined, the highest concentration tested was 10 microM.
NCI60 Cell Culture. NCI60 cell lines were obtained from the NCI Developmental Therapeutics Program Tumor Repository. For each lot of cells, the Repository performed Applied Biosystems AmpFLSTR Identifiler testing with PCR amplification to confirm consistency with the published Identifier STR profile for each cell line. Cells were kept in continuous culture for no more than 20 passages. The optimal seeding densities for each of the cell lines at each time point assessed were determined prior to performing the concentration response studies. Briefly, the NCI60 human tumor lines were grown as monolayers in RPMI 1640 medium supplemented with 10% FBS and 2 mmol/L L-glutamine.
An additional 9 lines were from the NCI60 cell line panel including MDA-MB-231 breast carcinoma, MDA-MB-468 breast carcinoma, MCF7 breast carcinoma, Hs578T breast carcinoma, MALME-3M melanoma, SK-MEL-2 melanoma, SK-OV-3 ovarian carcinoma, DU-145 prostate carcinoma, PC-3 prostate carcinoma, all cell lines along with major genetic alterations are listed on Table 2. Pooled donor human umbilical vein endothelial cells (HUVEC, Lonza, cat. CC-2519) and human mesenchymal stem cells (hMSC, Lonza, cat. PT-2501) were purchased from Lonza (Walkersville, MD).
PDMR cell lines were grown in complete medium (DC medium): Dulbecco's modified Eagle's medium (DMEM)/F12 supplemented with 5% fetal bovine serum (FBS), 2 mM L-glutamine, 100 U/mL penicillin and 100 µg/ml streptomycin, 0.4 µg/ml hydrocortisone, 10 ng/ml epidermal growth factor (EGF) recombinant human protein, 24 µg/mL adenine, and 0.1 mg/mL primocin. During culture from frozen stock vials, PDMR cells were cultured in the same medium containing 10 µM Y-27632 (see Table 3). The PDCs were cultured in complete DMEM/F12 media without 10 microM Y-27632 dihydrochloride for at least two passages prior to the screen. The pooled donor HUVEC and hMSC were cultured in endothelial cell growth medium 2 (PromoCell, Heidelberg, Germany, cat. C-22011) and mesenchymal stem cell growth medium 2 (PromoCell, cat. C-28009), respectively. For all experiments, HUVEC and hMSC were used at passages </=5.
[…]

Molecule COc1c(OCCCN2CCOCC2)ccc2c3n(c(=NC(=O)c4cnc(N)nc4)nc12)CCN3 + CCN1CCN(Cc2ccc(Nc3ncc(F)c(-c4cc(F)c5nc(C)n(C(C)C)c5c4)n3)nc2)CC1 has an IC50 (curve of first compound, second compound 0.01 µM) of 94.5 nM, an IC50 (curve of first compound, second compound 0.0316 µM) of 90.8 nM and an IC50 (curve of first compound, second compound 0.1 µM) of 86.5 nM. The IC50 (curve of first compound, second compound 0.316 µM) was 78.3 nM, the IC50 (curve of first compound, second compound 1 µM) was 80.6 nM and the viability, T/C (second compound 0.01 µM, first compound 0.00316 µM) was 89.5%. For the same molecule, the viability, T/C (second compound 0.01 µM, first compound 0.01 µM) was 99.3%, the viability, T/C (second compound 0.01 µM, first compound 0.0316 µM) was 140% and the viability, T/C (second compound 0.01 µM, first compound 0.1 µM) was 47%. The viability, T/C (second compound 0.01 µM, first compound 0.316 µM) was 13.3%, the viability, T/C (second compound 0.01 µM, first compound 1 µM) was 8.39% and the viability, T/C (second compound 0.0316 µM, first compound 0.00316 µM) was 109%. For the same molecule, the viability, T/C (second compound 0.0316 µM, first compound 0.01 µM) was 121%, the viability, T/C (second compound 0.0316 µM, first compound 0.0316 µM) was 142% and the viability, T/C (second compound 0.0316 µM, first compound 0.1 µM) was 43.2%. It also gave a viability, T/C (second compound 0.0316 µM, first compound 0.316 µM) of 11%, a viability, T/C (second compound 0.0316 µM, first compound 1 µM) of 8.82% and a viability, T/C (second compound 0.1 µM, first compound 0.00316 µM) of 156%. It also gave a viability, T/C (second compound 0.1 µM, first compound 0.01 µM) of 161%, a viability, T/C (second compound 0.1 µM, first compound 0.0316 µM) of 140% and a viability, T/C (second compound 0.1 µM, first compound 0.1 µM) of 37%. It also gave a viability, T/C (second compound 0.1 µM, first compound 0.316 µM) of 12.8%, a viability, T/C (second compound 0.1 µM, first compound 1 µM) of 9.54% and a viability, T/C (second compound 0.316 µM, first compound 0.00316 µM) of 174%. For the same molecule, the viability, T/C (second compound 0.316 µM, first compound 0.01 µM) was 170%, the viability, T/C (second compound 0.316 µM, first compound 0.0316 µM) was 111% and the viability, T/C (second compound 0.316 µM, first compound 0.1 µM) was 34.5%. The viability, T/C (second compound 0.316 µM, first compound 0.316 µM) was 14.8%, the viability, T/C (second compound 0.316 µM, first compound 1 µM) was 13.3% and the viability, T/C (second compound 1 µM, first compound 0.00316 µM) was 173%. It also gave a viability, T/C (second compound 1 µM, first compound 0.01 µM) of 171%, a viability, T/C (second compound 1 µM, first compound 0.0316 µM) of 104% and a viability, T/C (second compound 1 µM, first compound 0.1 µM) of 40.4%. For the same molecule, the viability, T/C (second compound 1 µM, first compound 0.316 µM) was 25% and the viability, T/C (second compound 1 µM, first compound 1 µM) was 28.6%.
C=CC(=O)N1CCN(c2nc(=O)n(-c3c(C)ccnc3C(C)C)c3nc(-c4c(O)cccc4F)c(F)cc23)C(C)C1 (centres undefined) was tested, and the viability, T/C (compound 0.0316 µM) was 108% and 98.7%, the viability, T/C (compound 0.1 µM) was 100% and 108% and the viability, T/C (compound 0.316 µM) was 90.2% and 99.7%. The viability, T/C (compound 1 µM) was 110% and 112%, the viability, T/C (compound 3.16 µM) was 122% and the viability, T/C (compound 10 µM) was 79.6% and 119%. For the same molecule, the IC50 (curve of compound) was greater than 10000 nM.
CC1(C)CCC(CN2CCN(c3ccc(C(=O)NS(=O)(=O)c4ccc(NCC5CCOCC5)c([N+](=O)[O-])c4)c(Oc4cnc5[nH]ccc5c4)c3)CC2)=C(c2ccc(Cl)cc2)C1 was tested, and the viability, T/C (compound 0.0316 µM) was 105% and 102%, the viability, T/C (compound 0.1 µM) was 107% and 108% and the viability, T/C (compound 0.316 µM) was 105% and 112%. The viability, T/C (compound 1 µM) was 107% and 108%, the viability, T/C (compound 3.16 µM) was 85.4% and 109% and the viability, T/C (compound 10 µM) was 3.66% and 4.01%. For the same molecule, the IC50 (curve of compound) was 5210 nM and 6000 nM.
C=CCn1c(=O)c2cnc(Nc3ccc(N4CCN(C)CC4)cc3)nc2n1-c1cccc(C(C)(C)O)n1 was tested, and the viability, T/C (compound 0.0316 µM) was 102% and 104%, the viability, T/C (compound 0.1 µM) was 94% and 92.4% and the viability, T/C (compound 0.316 µM) was 68.1% and 67.3%. The viability, T/C (compound 1 µM) was 23.1% and 31.4%, the viability, T/C (compound 3.16 µM) was 26.6% and 22.3% and the viability, T/C (compound 10 µM) was 26.4% and 23.9%. The IC50 (curve of compound) was 515 nM and 548 nM.
Cn1cnc2c(F)c(Nc3ccc(Br)cc3Cl)c(C(=O)NOCCO)cc21 was tested, and the viability, T/C (compound 0.00949 µM) was 105% and 99.8%, the viability, T/C (compound 0.03 µM) was 113% and 107% and the viability, T/C (compound 0.0949 µM) was 96.4% and 95.3%. The viability, T/C (compound 0.3 µM) was 85.1% and 96%, the viability, T/C (compound 0.949 µM) was 91.9% and 91% and the viability, T/C (compound 3 µM) was 65.1% and 73.2%. For the same molecule, the IC50 (curve of compound) was greater than 3000 nM.
In the case of CC(C)NCC(C(=O)N1CCN(c2ncnc3c2C(C)CC3O)CC1)c1ccc(Cl)cc1 (centres undefined), the viability, T/C (compound 0.1 µM) is reported as 72.9% [middle of 13 runs], the viability, T/C (compound 0.316 µM) is reported as 43.7% [middle of 13 runs] and the viability, T/C (compound 1 µM) is reported as 24.7% [middle of 12 runs]. The viability, T/C (compound 3.16 µM) was 14.9% [middle of 12 runs], the viability, T/C (compound 10 µM) was 13.3% [middle of 13 runs] and the IC50 (compound alone, run of 44348) was 249 nM [middle of 13 runs].
